Legend:
Type in all cases: in vivo
[1] = tested on: Monilinia fructicola (MONIFC); assay: Field assessment on brown rot of fruits on nectarines, harvest and shelf life simulation; conditions: curative; for Percent control based on fruit incidence vs untreated, Harvest: 8 DAAB
Source text: A fungicidal treatment containing Compound I, applied in a 5% EC formulation and tank mixed with an adjuvant (Trycol, 50% w/w at 0.2% v/v), was sprayed twice during fruit ripening on the plant canopy of nectarines (PRNPN, Calfornia variety) at rates of 50, 100, and 150 grams of active ingredient per hectare (g ai/ha). The applications were done at 8 day intervals with disease inoculation 12 days before the first application (curative). The treatment was part of an experimental trial designed as a randomized complete block with four replications and a plot of approximately 4.3×6.0 m, with compound I being applied using a MISTBLOW, Solo backpack applicator at a water volume of 800 L/ha.
The pathogen was certified to be Monilinia fructicola (MONIFC) by means of an immunoassay followed by a PCR assay on material collected (mummies) from the trial. The brown rot disease at harvest was evaluated on 100 randomly picked fruits per plot, 8 days after application B (8 DAAB), calculating the incidence of fruit with disease and then the percent control using Abbotts. Visually healthy samples of 60 fruits per plot were then placed in alveolus plates and kept for 5 days in cold storage. The samples were then maintained for […] at about 20° C. (shelf life period). Several assessments were made to check the development of disease during the shelf life simulation. In particular, the percentage of rotten fruits were checked at the exit from cold storage (after 5 days of refrigeration, 13 DAAB) followed by 15, 17, 20 and 23 DAAB. Percent of fruit with disease was calculated (incidence) amd then percent control was calculated using Abbotts.

[2] = tested on: Monilinia fructicola (MONIFC); assay: Field microplot assessment on brown rot on apricots; conditions: field grown apricots
Source text: A field trial assessing the utility of Compound I on rot diseases of stone fruits was done using apricots in a microplot method, part of an experimental trial designed as a randomized complete block with four replications. In a microplot method, two mature fruits on a single branch or cluster of fruits were selected for each replication (for a total of 10 replications) instead of using an entire replication. Colored flagging identified treatments. Fungicidal treatments containing Compound I, applied in a 5% EC formulation and tank mixed with an adjuvant (Trycol, 50% w/w at 0.2% v/v), were sprayed on apricots (PRNAR) at rates of 50, 100, and 150 grams of active ingredient per hectare (g ai/ha). The applications to the selected mature apricots were done at 7 days before harvest using a hand held manual spray bottle at a water volume of 500 L/ha. One day after application, a ZipLoc plastic bag was placed over the fruit or fruit cluster and an inoculation mix of MONIFC (Rhizopus was from natural population present in the orchard) was sprayed inside covering the fruits. The plastic bags were removed after 24 hours. At harvest, the fruits were collected in the field and placed in plastic Tupperware containers. 150 mL of de-ionized water was poured in the bottom of the Tupperware containers and the fruits were sprayed with a light mist of water. The containers were brought to the lab, enclosed in a large trash bag to keep the humidity high, and incubated on a lab bench at approximately 23° C. Visual disease incidence was assessed during the trial at 9 and 16 days after application. Area under the disease progress curve (AUDPC) was calculated for each plot using the sets of recorded incidence data. Relative AUDPC (% control based on AUDPC) was calculated as percent of the nontreated control.

[3] = tested on: Botrytis cinerea (BOTRCI); assay: Strawberry shelf-life simulation, gray mold
Source text: Strawberry shelf-life simulation (3 repetitions): Fungicidal treatments were applied to strawberry plants grown in a shade house to obtain healthy fruits. Once matured, the healthy fruits were harvested and transferred to a laboratory for a shelf-simulation study. In the laboratory, the fruits were bleach decontaminated to remove residual chemical residue. Compound I, applied in a 5% EC formulation and mixed with an adjuvant (Trycol, 50% w/w at 0.2% v/v), was sprayed on the healthy strawberries at rates of 50, 100 and 150 grams of active ingredient per hectare (g ai/ha) and allowed to dry completely. The fruits were then inoculated with gray mold and incubated on a laboratory bench at 20° C. Disease severity was recorded as a percentage of fruit infection assessments. Gray mold infection was assessed twice after the initial inoculation, 4 days after infection (4DAI) and 6DAI. Area under the disease progress curve (AUDPC) was calculated for each repetition using the sets of recorded severity data. Relative AUDPC (% control based on AUDPC) was calculated as percent of the nontreated control.

Botrytis (BOTRSP) = assay: Field assessment of jacket rot in almond; conditions: MSO, almond nut infection
Method: A fungicidal treatment containing Compound I, applied in an SC formulation (MSO-built in) was sprayed on almond trees (Prunus spp.) at bloom, petal fall and ca. 3 and 5 weeks after petal fall at rates of 60, 120, 150, and 180 g ai/ha. The experimental plots were conducted with a natural infestation of Botrytis. The treatments were part of an experimental trial designed as a randomized complete block (RCB) with three replications and a plot of approximately 18×18 ft. Compound I was applied at water volume of 100 gal/acre, using an Airblast sprayer. Nut infection (number of visual diseased nuts per total nuts counted per tree on whole plot) was assessed and recorded 17 days after application 4 (17 DAA4). Relative percent control was calculated as percent of the untreated control using Abbotts.

COc1ccnc(C(=O)N[C@@H](C)C(=O)O[C@@H](C)C(c2ccc(F)cc2)c2ccc(F)cc2)c1OC(C)=O [Compound I, (S)-1,1-bis(4-fluorophenyl)propan-2-yl (3-acetoxy-4-methoxypicolinoyl)-L-alaninate]
Percent control based on fruit incidence vs untreated, Shelf Life Simulation ([1]; 50 g ai/ha): C (26-50)
Percent control based on fruit incidence vs untreated, Harvest ([1]; 50 g ai/ha): B (51-75)
Percent control based on fruit incidence vs untreated, Shelf Life Simulation ([1]; 100 g ai/ha): C (26-50)
Percent control based on fruit incidence vs untreated, Harvest ([1]; 100 g ai/ha): B (51-75)
Percent control based on fruit incidence vs untreated, Shelf Life Simulation ([1]; 150 g ai/ha): B (51-75)
Percent control based on fruit incidence vs untreated, Harvest ([1]; 150 g ai/ha): B (51-75)
Percent control (AUDPC) from fruit incidence, MONIFC ([2]; 50 g ai/ha): B (51-75)
Percent control (AUDPC) from fruit incidence, MONIFC ([2]; 100 g ai/ha): B (51-75)
Percent control (AUDPC) from fruit incidence, MONIFC ([2]; 150 g ai/ha): B (51-75)
Percent control (AUDPC) from fruit severity assessments ([3]; 50 g ai/ha): B (51-75)
Percent control (AUDPC) from fruit severity assessments ([3]; 100 g ai/ha): A (76-100)
Percent control (AUDPC) from fruit severity assessments ([3]; 150 g ai/ha): A (76-100)
Calc Percent Control of BOTRSP 17 DAA4 (Botrytis (BOTRSP); 60 g ai/ha, 120 g ai/ha): 37.9%
Calc Percent Control of BOTRSP 17 DAA4 (Botrytis (BOTRSP); 120 g ai/ha, 240 g ai/ha): 40.0%
Calc Percent Control of BOTRSP 17 DAA4 (Botrytis (BOTRSP); 150 g ai/ha, 300 g ai/ha): 51.6%
Calc Percent Control of BOTRSP 17 DAA4 (Botrytis (BOTRSP); 180 g ai/ha, 360 g ai/ha): 53.5%

Reference: patent US20200077655A1, “Use of an Acyclic Picolinamide Compound as a Fungicide for Control of Phytopathogenic Fungi in Orchard, Vineyard and Plantation Crops” (Dow AgroSciences LLC, priority 2017, published 2020)
